From patent US20160176867A1, “MODIFIED BET-PROTEIN-INHIBITING DIHYDROQUINOXALINONES AND DIHYDROPYRIDOPYRAZINONES” (BAYER PHARMA AKTIENGESELLSCHAFT, priority 2013, published 2016)

Experiments:
[1] = target: T1, BRD4 bromo domain 2 [BRD4(2)] (Homo sapiens, UniProt O60885); test: BRD4/acetylated peptide H4 binding assay (TR-FRET), BRD4 bromo domain 2; conditions: inhibition of BRD4(2)/Ac-H4 peptide interaction
T1 construct: N-terminally His6-tagged BRD4(2) (amino acids 357-445); made in house; host or cells: E. coli
Outline: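 IC50 comes from a 4-parameter fit over 0.1 nM–20 μM in duplicate, normalised to DMSO and no-protein controls. TR-FRET (Eu-streptavidin/anti-His-XL665) tracks His-tagged BRD4(2) 357-445 at 100 nM binding Ac-H4 peptide in HEPES pH 7.5 buffer. Incubation was 1 h at 22 °C, then at 4 °C ≥3 h up to overnight.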

[2] = tested on: MOLP-8 cells; test: Cell proliferation assay (alamarBlue), MOLP-8; type: cell-based; conditions: Homo sapiens; MOLP-8 (multiple myeloma), 120 hours
Outline: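 MOLP-8 cells plated at 4000 cells/well in RPMI1640 with 20% FCS, read after overnight culture, then treated with dilutions from 1E-5 to 1E-8 M for 120 hours at 37° C. Viability by alamarBlue fluorescence (ex 530/em 590 nm); initial reads subtracted, compared with buffer-treated cells, and IC50 calculated for 50% proliferation inhibition.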

[3] = tested on: B16F10 cells; test: Cell proliferation assay (alamarBlue), B16F10; type: cell-based; conditions: Mus musculus, B16-F10; B16F10 (melanoma, BRAF wild-type), 96 hours
Outline: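 B16F10 cells in DMEM with 10% FCS were exposed to seven concentrations from 1E-5 to 1E-8 M for 96 hours at 37 °C. Viability was read with alamarBlue (ex 530/em 590 nm), and day-0 signal was subtracted. IC50 was derived relative to buffer-treated cells.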

[4] = tested on: CHL-1 cells; test: Cell proliferation assay (alamarBlue), CHL-1; type: cell-based; conditions: Homo sapiens; CHL-1 (melanoma, BRAF wild-type), 96 hours
Outline: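 Human melanoma CHL-1 cells, 1000/well in DMEM with glutamine and 10% FCS, treated after overnight at 37°C with 1E-5 to 1E-8 M dilutions for 96 hours. alamarBlue fluorescence (ex 530/em 590 nm); baseline subtracted, compared with buffer-treated cells to give IC50.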

SMILES	IC50 [1] [nM]	IC50 [2] [nM]	IC50 [3] [nM]	IC50 [4] [nM]
CC(C)CN1c2nc(Nc3cccc(S(=O)(=O)N[C@H]4CC[C@H](N5CCN(CC6CC6)CC5)CC4)c3)ccc2N(C)C(=O)[C@H]1C [Example 45, N-{trans-4-[4-(cyclopropylmethyl)-piperazin-1-yl]cyclohexyl}-3-{[(3R)-4-isobulyl-1,3-dimethyl-2-oxo-1,2,3,4-tetrahydropyrido[2,3-b]pyrazin-6-yl]amino}-benzenesulphonamide]	148	67	393	81
C[C@@H]1C(=O)N(C)c2ccc(Nc3cccc(S(=O)(=O)N4CC5(CCC5)C4)c3)nc2N1C1CCNCC1 [Example 122, (3R)-6-{[3-(2-Azaspiro[3.3]hept-2-ylsulphonyl)phenyl]amino}-1,3-dimethyl-4-(piperidin-4-yl)-3,4-dihydropyrido[2,3-b]pyrazin-2(1H)-one]	94	493	1840	712
